Marks after values point to notes of the source that are not given here.
B1: h1F6-1.3: h1F6 antibody (targets CD70+ cells) conjugated to auristatin E Drug-Linker compound 1.3 with MAC unit (conjugate, chains of the INN, looked up)
VH: QVQLVQSGAEVKKPGASVKVSCKASGYTFTNYGMNWVRQAPGQGLKWMGWINTYTGEPTYADAFKGRVTMTRDTSISTAYMELSRLRSDDTAVYYCARDYGDYGMDYWGQGTTVTVSS
VL: DIVMTQSPDSLAVSLGERATINCRASKSVSTSGYSFMHWYQQKPGQPPKLLIYLASNLESGVPDRFSGSGSGTDFTLTISSLQAEDVAVYYCQHSREVPWTFGQGTKVEIK
modifications: auristatin E drug-linker 1.3 with MAC unit
notes: h1F6 antibody (targets CD70+ cells) conjugated to auristatin E Drug-Linker compound 1.3 with MAC unit

Tests used:
[1] = In vitro stability of drug-linker / model drug-linker compounds to spontaneous hydrolysis of the methylene carbamate unit (LC/MS); assay type: physicochemical; conditions: for Relative Degradation Half-life Observed by LC/MS: 0.1M PBS; for Relative Degradation Half-life Observed by LC/MS / drug-linker degradation: pH 7.4, at 37° C.; for comparative hydrolytic stability: PBS, 8.26 compared with 6.4, 5.6 compared with model compound (8.23); for comparative hydrolytic stability / degradation / stability to spontaneous hydrolysis / stability to spontaneous hydrolysis when R is dimethylaminoethyl instead of ethyl: pH 7.4, 37° C.; for drug-linker degradation: after 14 da incubation in 0.1 M PBS; for degradation / stability to spontaneous hydrolysis / stability to spontaneous hydrolysis when R is dimethylaminoethyl instead of ethyl: 0.1 M phosphate buffered saline; for degradation / stability to spontaneous hydrolysis: tested every 24 h for 7 days by LC/MS; for stability to spontaneous hydrolysis when R is dimethylaminoethyl instead of ethyl: 7 days, compared with 8.26
Description: General procedure for testing Drug-Linker stability: Final N-acetyl products of Example 8 were dissolved in 1 mL 0.1 M phosphate buffered saline, pH 7.4, in a vial at 37° C. LC/MS samples were prepared by adding 2 μL aliquots of incubated compound solution to 100 μL of MeOH in an HPLC vial. Each conjugate was tested every 24 h for 7 days.
For evaluation of in vitro stability of Compound 7.7 this Drug-Linker compound was converted to its N-acetylcysteine conjugate (NAC-7.7), which provide a model LDC with NAC serving as a surrogate for a targeting antibody Ligand Unit. For that purpose eight microliters of a 8 mM DMSO stock of Drug-Linker Compound was diluted in phosphate-buffered saline (0.39 mL). The maleimide moiety in each Drug-Linker Compound was then quenched with N-acetylcysteine (0.8 μL, 100 mM stock), and the material was stored in a 37° C. incubator. Aliquots were drawn at various time points out to 14 days and analyzed by UPLC-MS for drug-linker integrity.
Stability testing was conducted as in Example 9.

[2] = tested on: Type B-1 β-glucuronidase (bovine liver); experiment: Release of free drug or model drug from NAC-conjugates after glucuronidase activation of the Self-immolative Assembly Unit; assay type: biochemical; conditions: NAC-conjugate corresponding to the named model drug-linker compound (N-acetyl cap replaced by maleimide Stretcher quenched with N-acetyl-cysteine)
Description: Release of free drug from the NAC-7.7 conjugate derived from the Drug-Linker Compound of Example 7 was evaluated in the following manner: An enzyme stock was prepared by dissolving Type B-1 β-glucuronidase (bovine liver, 1,644,000 units/g solid) in pH 5 100 mM sodium acetate buffer to a working concentration of 0.5 mg/mL. Five microliters of 8 mM drug-linker stock of compound 7.7 was added to 12.5 μL DMSO, 26.3 μL of phosphate-buffered saline, and 6.75 μL of 100 mM N-acetylcysteine. The quenched linker was then diluted with 0.45 mL enzyme stock. The enzymatic reaction was then incubated at 37 C, with multiple time points taken at 1, 10, 20, and 40 minutes. Each time point sample consisted of 20 μL reaction diluted in 5 volumes ice cold methanol and cooled to −20 C until all the samples were withdrawn. The samples were then centrifuged at 12,000 g for 5 minutes and 20 μL of supernatant was analyzed by UPLC-MS. After 20 minutes of enzyme digestion the drug-linker was completely consumed. By 40 minutes, the majority of the material was free drug, indicating effectively complete drug release from the linker system.
Releases of stand-in “free drugs” from NAC conjugates incorporating the Drug-Linker moieties from Example 8 were also studied. Those compounds were prepared by replacing the N-acetyl capping group with N-3-(propionoyl)-maleimide, which introduces a maleimide Stretcher Unit precursor, in the amino intermediates used for the preparation of model drug linker compounds 8.23-8.30. The maleimide moieties are then quenched with N-acetyl-cysteine as previously described for the preparation of NAC-7.7. The NAC-conjugates derived from the amino intermediates of Example 8 have the generalized structure of
[drawing 194] wherein T* is the oxygen or sulfur heteroatom from the hydroxyl or sulfhydryl functional group of the primary alcohol or thiol-containing compound or the oxygen heteroatom from the hydroxyl functional group of the secondary or tertiary alcohol-containing compound or from the phenolic-containing compound of Table 3.

Karpas 299 = experiment: In vitro cytotoxic activity of ADCs; assay type: cell-based; conditions: Table 6; Karpas 299 CD30+ CD70−
Description: (§1) The targeting antibody ligands cAC10 and h1F6 are described in U.S. Pat. […] cAC10-1006 and hF16-1006, referenced in the following tables, is the chimeric AC10 antibody and the humanized F16 antibody, respectively, conjugated to monomethyl auristatin E (MMAE) at its N terminus via a carbamate functional group to a val-cit-PABA self-immolative moiety having formula XVIII and was used as a control. The resultant ADCs were tested against multiple cell lines to determine in vitro activity, the results from which are summarized in Tables 5 and 6.

Caki-1 = experiment: In vitro cytotoxic activity of ADCs; assay type: cell-based; conditions: Table 6; Caki-1 CD70+
Description: as §1

786-0 = experiment: In vitro cytotoxic activity of ADCs; assay type: cell-based; conditions: Table 6; 786-0 CD70+
Description: as §1

L540cy = experiment: In vitro cytotoxic activity of ADCs; assay type: cell-based; conditions: Table 6; L540cy CD30+ CD70 (low)
Description: as §1

| Molecule | Relative Degradation Half-life Observed by LC/MS [1] | degradation / stability to spontaneous hydrolysis [1] | Time to 100% Release [2] | further results |
| --- | --- | --- | --- | --- |
| CO[C@H]1C[C@@H]2CC[C@@H](C)[C@@](O)(O2)C(=O)C(=O)N2CCCC[C@H]2C(=O)O[C@H]([C@@H](C)C[C@H]2CC[C@@H](OCCOCNC(=O)OCc3ccc(NC(=O)[C@H](CCCNC(N)=O)NC(=O)[C@@H](NC(=O)CCN4C(=O)C=CC4=O)C(C)C)cc3)[C@H](OC)C2)CC(=O)[C@H](C)/C=C(\C)[C@@H](O)[C@@H](OC)C(=O)[C@H](C)C[C@H](C)/C=C/C=C/C=C/1C [Compound 5.6] | 170 h |  |  | comparative hydrolytic stability [1]: even better hydrolytic stability; drug-linker degradation [1]: No indication of drug-linker degradation |
| C=CC[C@@H]1/C=C(\C)C[C@H](C)C[C@H](OC)[C@H]2O[C@@](O)(C(=O)C(=O)N3CCCC[C@H]3C(=O)O[C@H](/C(C)=C/C3CC[C@@H](OCNC(=O)OCc4ccc(NC(=O)[C@H](CCCNC(N)=O)NC(=O)[C@@H](NC(=O)CCN5C(=O)C=CC5=O)C(C)C)cc4)[C@H](OC)C3)[C@H](C)[C@@H](O)CC1=O)[C@H](C)C[C@@H]2OC (some centres unmarked) [Compound 6.4] | None Observed |  |  | comparative hydrolytic stability [1]: acceptable stability; drug-linker degradation [1]: No indication of drug-linker degradation; half-life ([1]; phosphate buffered saline, 0.1 M PBS buffer, pH 7.4 at 37° C.): 10 h |
| CCN(COc1cccc2ccccc12)C(=O)OCc1ccc(O[C@@H]2O[C@H](C(=O)O)[C@@H](O)[C@H](O)[C@H]2O)c(NC(C)=O)c1 [Compound 8.28, (2S,3S,4S,5R,6S)-6-(2-acetamido-4-(((ethyl((naphthalen-1-yloxy)methyl)carbamoyl)oxy)methyl)phenoxy)-3,4,5-trihydroxytetrahydro-2H-pyran-2-carboxylic acid] | None Observed | excellent stability | 25 min |  |
| COCCOCCOCCOCCOCCOCCOCCOCCN(COC(C)Cc1ccccc1)C(=O)OCc1ccc(O[C@@H]2O[C@H](C(=O)O)[C@@H](O)[C@H](O)[C@H]2O)c(NC(C)=O)c1 (stereo partly drawn) [Compound 8.32, (2S,3S,4S,5R,6S)-6-(2-acetamido-4-(3-oxo-4-(((1-phenylpropan-2-yl)oxy)methyl)-2,7,10,13,16,19,22,25,28-nonaoxa-4-azanonacosyl)phenoxy)-3,4,5-trihydroxytetrahydro-2H-pyran-2-carboxylic acid] | None Observed | no signs of degradation | 15 min |  |
| CCN(COCCc1ccccc1)C(=O)OCc1ccc(O[C@@H]2O[C@H](C(=O)O)[C@@H](O)[C@H](O)[C@H]2O)c(NC(C)=O)c1 [Compound 8.25, (2S,3S,4S,5R,6S)-6-(2-acetamido-4-(((ethyl(phenethoxymethyl)carbamoyl)oxy)methyl)phenoxy)-3,4,5-trihydroxytetrahydro-2H-pyran-2-carboxylic acid] | 170 h | suitable stability | 15 min | stability to spontaneous hydrolysis when R is dimethylaminoethyl instead of ethyl [1]: same excellent stability |
| CCN(CSCCc1ccccc1)C(=O)OCc1ccc(O[C@@H]2O[C@H](C(=O)O)[C@@H](O)[C@H](O)[C@H]2O)c(NC(C)=O)c1 [Compound 8.29, (2S,3S,4S,5R,6S)-6-(2-acetamido-4-(((ethyl((phenethylthio)methyl)carbamoyl)oxy)methyl)phenoxy)-3,4,5-trihydroxytetrahydro-2H-pyran-2-carboxylic acid] | None Observed | no sign of degradation | 40 min |  |
| CCN(COC(C)Cc1ccccc1)C(=O)OCc1ccc(O[C@@H]2O[C@H](C(=O)O)[C@@H](O)[C@H](O)[C@H]2O)c(NC(C)=O)c1 (stereo partly drawn) [Compound 8.26, (2S,3S,4S,5R,6S)-6-(2-acetamido-4-(((ethyl(((-phenylpropan-2-yl)oxy)methyl)carbamoyl)oxy)methyl)phenoxy)-3,4,5-trihydroxytetrahydro-2H-pyran-2-carboxylic acid] | None Observed | no signs of degradation | 45 min | comparative hydrolytic stability [1]: increase stability |
| CC(=O)Nc1cc(COC(=O)N(CCN(C)C)COC(C)(C)Cc2ccccc2)ccc1O[C@@H]1O[C@H](C(=O)O)[C@@H](O)[C@H](O)[C@H]1O [Compound 8.31, (2S,3S,4S,5R,6S)-6-(2-acetamido-4-((((2-(dimethylamino)ethyl)(((2-methyl-1-phenylpropan-2-yl)oxy)methyl)carbamoyl)oxy)methyl)phenoxy)-3,4,5-trihydroxytetrahydro-2H-pyran-2-carboxylic acid] | None Observed |  | 15 min |  |
| CCN(CO[C@H]1C2[C@H]3O[C@H]3[C@H]3C4=C(CC[C@]3(C)[C@@]23O[C@H]3[C@@H]2O[C@]12C(C)C)C(=O)OC4)C(=O)OCc1ccc(O[C@@H]2OC(C(=O)O)[C@@H](O)[C@H](O)C2O)c(NC(=O)CCNC(=O)CCN2C(=O)C=CC2=O)c1 (some centres unmarked) [Compound 4.5] | None Observed |  |  | drug-linker degradation [1]: No indication of drug-linker degradation |
| CC(=O)Nc1cc(COC(=O)N(CCN(C)C)COCCc2ccccc2)ccc1O[C@@H]1O[C@H](C(=O)O)[C@@H](O)[C@H](O)[C@H]1O [Compound 8.30, (2S,3S,4S,5R,6S)-6-(2-acetamido-4-((((2-(dimethylamino)ethyl)(phenethoxymethyl)carbamoyl)oxy)methyl)phenoxy)-3,4,5-trihydroxytetrahydro-2H-pyran-2-carboxylic acid] | None Observed |  | 15 min |  |
| CCN(COC(C)(C)Cc1ccccc1)C(=O)OCc1ccc(O[C@@H]2O[C@H](C(=O)O)[C@@H](O)[C@H](O)[C@H]2O)c(NC(C)=O)c1 [Compound 8.27, (2S,3S,4S,5R,6S)-6-(2-acetamido-4-(((ethyl(((2-methyl-1-phenylpropan-2-yl)oxy)methyl)carbamoyl)oxy)methyl)phenoxy)-3,4,5-trihydroxytetrahydro-2H-pyran-2-carboxylic acid] | 170 h | suitable stability | 15 min | stability to spontaneous hydrolysis when R is dimethylaminoethyl instead of ethyl [1]: same excellent stability |
| B1 |  |  |  | IC50 (Karpas 299): >1 µg/mL; IC50 (Caki-1): 0.019 µg/mL; IC50 (786-0): >1000** ng/mL; IC50 (L540cy): >1000* ng/mL |

From patent US11116847B2, “Methylene carbamate linkers for use with targeted-drug conjugates” (Seagen Inc., priority 2013, dated 2021)
